Patent publication US4749703A, “Calcium antagonist piperazine derivatives, and compositions therefor” (Dainippon Pharmaceutical Co., Ltd., priority 1984, dated 1988)

Key:
[1] = system: methacholine-induced ST elevation; experiment: Preventive effect on methacholine-induced ST elevation (experimental model of variant angina); assay type: in vivo, Male SD strain rats; conditions: i.v.; for ST elevation, administn. of M (8 μg) after administn. of test compd. (at peak time): ± S.E.; for preventive effect on the ST elevation (in words): compared with diltiazem hydrochloride
Procedure: (2) Preventive effect on methacholine-induced ST elevation (effect in experimental model of variant angina)
The test was carried out according to the method of Sakai et al. [cf. J. Pharmacol. Methods, 5, 325-336 (1981)].
Male SD strain rats, weighing about 500 g, were anesthetized with 60 mg/kg (i.p.) of sodium pentobarbital. Lead II electrocardiogram was recorded. The ST elevation was produced with 8.0 μg of metacholine given into the coronary […] through the cannula inserted from the right carotid artery. The test compound, dissolved in 5% ethanol-physiological saline solution, was administered intravenously. The amplitude of ST elevation was measured by means of the computer 0.5, 5 and 10 minutes after the administration of the test compound and afterward at intervals of 10-minute. The effect of the test compound was evaluated by comparing the amplitude of ST elevation after administration of the test compound with that before the administration. Each group of 5 rats was used for each dose of the test compound.
The abbreviation M in the table represents metacholine.

in vivo = conditions: mouse, mortality for 7 days
Text: STD-ddY strain mice were used in groups of 10 animals each.

[2] = system: vasopressin-induced ST depression; experiment: Preventive effect on vasopressin-induced ST depression (experimental model of angina pectoris); assay type: in vivo, Male Donryu strain rats; set-up: key to Preventive effect on ST depression, 7 hours / Preventive effect on ST depression, 1 hour / Preventive effect on ST depression, 5 hours / Preventive effect on ST depression, 3 hours: +: Significantly different from vehicle control (P < 0.05); -: No significant difference; conditions: for Preventive effect on ST depression, 1 hour: 1 hour following administration; for Preventive effect on ST depression, 3 hours: 3 hours following administration; for Preventive effect on ST depression, 5 hours: 5 hours following administration; for Preventive effect on ST depression, 7 hours: 7 hours following administration; for preventive effect on the ST depression (in words): p.o., compared with diltiazem hydrochloride
Procedure: (1) Preventive effect on vasopressin-induced ST depression (effect in experimental model of angina pectoris)
The test was carried out according to the method of Hatano et al. [cf. Pharmacometrics, 19, 311-317 (1980)].
Male Donryu strain rats, weighing 130-180 g, were anesthetized with 60 mg/kg (i.p.) of sodium pentobarbital. Lead II electrocardiogram was recorded. The ST depression produced with 0.2 IU/kg (i.v.) of vasopressin was recorded at intervals of a given period for 5 minutes after the administration of vasopressin. The test compound, suspended in 0.5% aqueous tragacanth solution, was administered orally 1, 3, 5 and 7 hours before the administration of vasopressin. The amplitude of ST depression was measured by means of the computer, and the data were analyzed statistically by two-dimensional analysis between the control group and the treated group to evaluate the effect of the test compound. Each group of 5 rats was used for each dose of the test compound.

[3] = system: spontaneously hypertensive rats (SHR); experiment: Antihypertensive activity in spontaneously hypertensive rats (SHR); assay type: in vivo, male SHR (Okamoto and Aoki strain) rats; conditions: 30 mg/kg
Procedure: The animals used were male SHR [Okamoto and Aoki strain; cf. Jap. Circul. […] Proc. Soc. […] The other end of the cannula was exposed through the skin on the back of the neck and fixed. After 1 to 4 days, the aortic cannula was connected to a pressure transducer (produced by Nihon Koden Co., Ltd., Japan; Model MP-4T), and conscious blood pressure was measured by direct method. On the day of the experiment, the blood pressure was measured for one hour prior to dosing. The test compound, suspended in 0.5% aqueous tragacanth solution, was administered orally at a volume of 3.0 ml/kg and the blood pressure was measured continuously for 5 hours.
The changes of blood pressure are expressed by the mean pressure calculated from the values of systolic and diastolic pressure.

[4] = 0.3 mg/kg, * P < 0.05, ** P < 0.01
[5] = ip, single intraperitoneal administration

O=C(CCCN1CCN(c2ccc(F)cc2)CC1)NC1c2ccccc2C=Cc2ccccc21 [79(3), 5-[4-[4-(4-fluorophenyl)-1-piperazinyl]butyrylamino]-5H-dibenzo[a,d]cycloheptene]
peak time (preventive effect on ST elevation) ([1]; 0.1 mg/kg): 5 min
ST elevation, administn. of M (8 μg) after administn. of test compd. (at peak time) ([1]; 0.1 mg/kg, * P < 0.05): +0.12 ± 0.02 ΔmV
peak time (preventive effect on ST elevation) ([1]; 0.3 mg/kg): 0.5 min
ST elevation, administn. of M (8 μg) after administn. of test compd. (at peak time) [1, 4]: +0.04 ± 0.02 ΔmV
peak time (preventive effect on ST elevation) ([1]; 1.0 mg/kg): 0.5 min
ST elevation, administn. of M (8 μg) after administn. of test compd. (at peak time) ([1]; 1.0 mg/kg, ** P < 0.01): +0.08 ± 0.01 ΔmV
preventive effect on the ST elevation (in words) [1]: preventive effect on the ST elevation comparable to that of diltiazem hydrochloride
LD50 at 168 h (in vivo; [5]): > 1000 mg/kg
LD50 at 168 h (in vivo; single oral administration): > 4000 mg/kg
Preventive effect on ST depression, 1 hour ([2]; 3 mg/kg p.o.): +
Preventive effect on ST depression, 3 hours ([2]; 3 mg/kg p.o.): +
Preventive effect on ST depression, 5 hours ([2]; 3 mg/kg p.o.): -
Preventive effect on ST depression, 1 hour ([2]; 10 mg/kg p.o.): +
Preventive effect on ST depression, 5 hours ([2]; 10 mg/kg p.o.): +
Preventive effect on ST depression, 7 hours ([2]; 10 mg/kg p.o.): -
Preventive effect on ST depression, 7 hours ([2]; 30 mg/kg p.o.): +
preventive effect on the ST depression (in words) [2]: more prolonged preventive effect on the ST depression than diltiazem hydrochloride

O=C(CCCN1CCN(c2ccc(F)cc2)CC1)NC1c2ccccc2CSc2ccccc21 (stereo not drawn) [Example 1(3), 11-[4-[4-(4-fluorophenyl)-1-piperazinyl]butyrylamino]-6,11-dihydrodibenzo[b,e]thiepin]
Peak time (time of maximum hypotensive effect) ([3]; p.o.): 5 h
maximum hypotensive effect (decrease compared with the initial blood pressure) ([3]; oral): 12-14%
time of maximum hypotensive effect ([3]; oral): 4 to 5 h
peak time (preventive effect on ST elevation) ([1]; 0.1 mg/kg): 0.5 min
ST elevation, administn. of M (8 μg) after administn. of test compd. (at peak time) ([1]; 0.1 mg/kg, * P < 0.05): +0.14 ± 0.02 ΔmV
peak time (preventive effect on ST elevation) ([1]; 0.3 mg/kg): 5 min
ST elevation, administn. of M (8 μg) after administn. of test compd. (at peak time) [1, 4]: +0.09 ± 0.02 ΔmV
peak time (preventive effect on ST elevation) ([1]; 1.0 mg/kg): 0.5 min
ST elevation, administn. of M (8 μg) after administn. of test compd. (at peak time) ([1]; 1.0 mg/kg, ** P < 0.01): +0.09 ± 0.01 ΔmV
preventive effect on the ST elevation (in words) [1]: preventive effect on the ST elevation comparable to that of diltiazem hydrochloride
LD50 at 168 h (in vivo; [5]): > 1000 mg/kg
LD50 at 168 h (in vivo; single oral administration): > 4000 mg/kg
Preventive effect on ST depression, 1 hour ([2]; 3 mg/kg p.o.): +
Preventive effect on ST depression, 3 hours ([2]; 3 mg/kg p.o.): -
Preventive effect on ST depression, 1 hour ([2]; 10 mg/kg p.o.): +
Preventive effect on ST depression, 5 hours ([2]; 10 mg/kg p.o.): +
Preventive effect on ST depression, 7 hours ([2]; 10 mg/kg p.o.): -
Preventive effect on ST depression, 7 hours ([2]; 30 mg/kg p.o.): +
preventive effect on the ST depression (in words) [2]: more prolonged preventive effect on the ST depression than diltiazem hydrochloride
